Assay results as given in patent US6057085A, “Color photographic recording material” (Agfa-Gevaert NV, priority 1997, dated 2000).

Assay: log P(o/w), n-octanol/water two phase system
Type: physicochemical
Description: *log P(o/w) is the decimal logarithm of the distribution coefficient
of a substance in the noctanol/water two phase system.

`CCOCCOCCN(CCOCCOCC)c1ccc(C=C(C#N)c2nc3cc(S(=O)(=O)NC(=O)CC)ccc3o2)cc1` [Dye I-10] and `CCOCCOCCN(CCOCCOCC)c1ccc(C=C(C#N)c2nc3cc(S(=O)(=O)NC(=O)CC)ccc3s2)cc1` [Dye I-22] cannot be ordered by logP: under 5 for the first, under 5 for the second.

First: CCCCOC(=O)CN(CC(=O)OCCCC)c1ccc(C=C(C#N)C(=O)c2ccc(NS(C)(=O)=O)cc2)c(C)c1 [GF-2]
Second: CCCCCCCCCCCCCCCCS(=O)(=O)Nc1ccc2nc(C(C#N)=Cc3ccc(N(CC)CC)cc3C)sc2c1 [GF-4]
The logP of the first is lower: under 5 for the first, over 5 for the second.

`Cc1cc(N(CC(=O)OC(C)COC(C)COC(C)(C)C)CC(=O)OC(C)COC(C)COC(C)(C)C)ccc1C=C(C#N)c1nc2cc(C(=O)O)ccc2o1` (centres unmarked) [Dye I-6] and `CN(C)c1ccc(C=C(C#N)c2nc3cc(C(=O)O)ccc3o2)cc1` [Dye I-1] cannot be ordered by logP: under 5 for the first, under 5 for the second.

Compared with `CCCCCCCCCCCCNc1cc(C)c(C=C(C#N)c2nc3ccc(NS(C)(=O)=O)cc3o2)cc1C` [GF-5], `CCCCS(=O)(=O)Nc1ccc(C2=C(C#N)C(=O)OC2=Cc2ccco2)cc1` [GF-3] is lower in logP: over 5 for the first, under 5 for the second.
